Measured values from the supplement of paper PMC11061612.

Experiments:
Experiment in all cases: combination Emax (second highest fraction inhibited in the dose matrix, 72 h); higher = more inhibition; extreme values may be limits of the assay
[1] = test system: CW-2 (Colorectal Carcinoma)
In short: (§1)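 Bliss excess equals the observed combination effect minus the expected value EA + EB − EA·EB, where EA and EB are the effects of each agent alone. Combination Emax is the second-highest inhibition within the matrix. Inhibition was scaled from CellTiter-Glo 2.0 luminescence, with 0 set by vehicle wells and 1 by blank wells, after 72 hours of two-drug dosing of cells plated in 1536-well plates.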

[2] = test system: DAN-G (Pancreatic Carcinoma)
In short: as §1

[3] = test system: ESO51 (Esophageal Adenocarcinoma)
In short: as §1

[4] = test system: H9 (T-Cell Non-Hodgkin's Lymphoma)
In short: as §1

[5] = test system: KMS-12-BM (Plasma Cell Myeloma)
In short: as §1

[6] = test system: KP-3 (Pancreatic Carcinoma)
In short: as §1

[7] = test system: KU812 (Chronic Myelogenous Leukemia)
In short: as §1

[8] = test system: KY821 (Acute Myeloid Leukemia)
In short: as §1

[9] = test system: KYSE-270 (Esophageal Squamous Cell Carcinoma)
In short: as §1

[10] = test system: MOG-G-CCM (Low Grade Glioma)
In short: as §1

[11] = test system: NCCIT (Other Solid Carcinomas)
In short: as §1

[12] = test system: NCI-H3122 (Lung Adenocarcinoma)
In short: as §1

[13] = test system: NCI-H661 (Non-Small Cell Lung Carcinoma)
In short: as §1

RD (Rhabdomyosarcoma) = test system: RD (Rhabdomyosarcoma)
In short: as §1

[14] = test system: RPMI-8226 (Plasma Cell Myeloma)
In short: as §1

[15] = test system: SK-GT-4 (Esophageal Adenocarcinoma)
In short: as §1

[16] = test system: SNU-398 (Hepatocellular Carcinoma)
In short: as §1

[17] = test system: SU-DHL-5 (B-Cell Non-Hodgkin's Lymphoma)
In short: as §1

[18] = test system: SUP-B15 (B-Lymphoblastic Leukemia)
In short: as §1

Compound | combination Emax [1] | combination Emax [2] | combination Emax [3] | combination Emax [4] | combination Emax [5] | combination Emax [6] | combination Emax [7] | combination Emax [8] | combination Emax [9] | combination Emax [10] | combination Emax [11] | combination Emax [12] | combination Emax [13] | combination Emax (RD (Rhabdomyosarcoma)) | combination Emax [14] | combination Emax [15] | combination Emax [16] | combination Emax [17] | combination Emax [18]
CS(=O)(=O)CCNCc1ccc(-c2ccc3ncnc(Nc4ccc(OCc5cccc(F)c5)c(Cl)c4)c3c2)o1 [Lapatinib] + C[C@@H](Oc1cc(-c2cnn(C3CCNCC3)c2)cnc1N)c1c(Cl)ccc(F)c1Cl [Crizotinib] (first compound max 10 µM, 7x7, partner max 10 µM) | 0.708 | 0.991 | 0.997 | 0.983 | 0.965 | 0.557 | 0.999 | 0.986 | 0.967 | 0.745 | 0.599 | 0.938 | 0.703 | 0.891 | 0.679 | 0.82 | 0.77 | 1 | 0.963
CCc1c2c(nc3ccc(O)cc13)-c1cc3c(c(=O)n1C2)COC(=O)[C@]3(O)CC [SN-38] + O=C(c1cc(Cc2n[nH]c(=O)c3ccccc23)ccc1F)N1CCN(C(=O)C2CC2)CC1 [Olaparib] (first compound max 0.3 µM, 7x7, partner max 10 µM) | 0.604 |  | 0.624 | 1 |  | 0.0787 | 0.756 | 0.998 | 0.949 | 0.49 | 0.274 | 0.932 | 0.548 |  |  | 0.4 | 0.255 | 1 | 
NC1(C(=O)N[C@@H](CCO)c2ccc(Cl)cc2)CCN(c2ncnc3[nH]ccc23)CC1 [Capivasertib] + CCN(CCO)CCCOc1ccc2c(Nc3cc(CC(=O)Nc4cccc(F)c4)[nH]n3)ncnc2c1 [AZD2811] (first compound max 10 µM, 7x7, partner max 1 µM) | 0.288 | 0.43 | 0.248 | 1 | 0.522 | 0.284 | 0.727 | 0.613 | 0.329 | 0.67 | 0.624 | 0.62 | 0.36 | 0.349 | 0.422 | 0.621 | 0.542 | 1 | 0.929
CC(=O)c1c(C)c2cnc(Nc3ccc(N4CCNCC4)cn3)nc2n(C2CCCC2)c1=O [Palbociclib] + Cc1c2c(nn1C)CSCc1cc(n(C)n1)CSc1cc(c3ccccc3c1)OCCCc1c(C(=O)O)n(C)c3c-2c(Cl)ccc13 [AZD5991] (first compound max 10 µM, 7x7, partner max 1 µM) | 0.451 | 0.222 | 0.218 | 0.742 | 1 | 0.221 | 0.834 | 1 | 0.568 | 0.169 | 0.809 | 0.605 | 0.631 | 0.317 | 0.939 | 0.305 | 0.944 | 1 | 0.986
CS(=O)(=O)CCNCc1ccc(-c2ccc3ncnc(Nc4ccc(OCc5cccc(F)c5)c(Cl)c4)c3c2)o1 [Lapatinib] + Cn1cnc2c(F)c(Nc3ccc(Br)cc3Cl)c(C(=O)NOCCO)cc21 [Selumetinib] (first compound max 10 µM, 7x7, partner max 10 µM) | 0.576 |  |  |  |  | 0.367 | 0.963 |  | 0.542 | 0.257 | 0.255 | 0.611 |  |  |  | 0.585 |  |  | 
CC(=O)c1c(C)c2cnc(Nc3ccc(N4CCNCC4)cn3)nc2n(C2CCCC2)c1=O [Palbociclib] + Cn1cnc2c(F)c(Nc3ccc(Br)cc3Cl)c(C(=O)NOCCO)cc21 [Selumetinib] (first compound max 10 µM, 7x7, partner max 10 µM) | 0.451 | 0.43 | 0.601 | 0.956 | 0.642 | 0.244 | 0.904 | 0.861 | 0.252 | 0.157 | 0.276 | 0.701 | 0.119 | 0.569 | 0.547 | 0.566 | 0.376 | 1 | 0.661
Cc1nc(Nc2ncc(C(=O)Nc3c(C)cccc3Cl)s2)cc(N2CCN(CCO)CC2)n1 [Dasatinib] + CC(=O)Nc1cccc(-n2c(=O)n(C3CC3)c(=O)c3c(Nc4ccc(I)cc4F)n(C)c(=O)c(C)c32)c1 [Trametinib] (first compound max 2 µM, 7x7, partner max 1 µM) | 0.551 | 0.962 | 0.949 | 0.892 | 0.396 | 0.61 | 1 | 0.691 | 0.603 | 0.741 | 0.366 | 0.705 | 0.502 | 0.769 | 0.239 | 0.791 | 0.501 | 1 | 0.952
NC1(C(=O)N[C@@H](CCO)c2ccc(Cl)cc2)CCN(c2ncnc3[nH]ccc23)CC1 [Capivasertib] + C[C@@H]1COCCN1C2=NC(=NC(=C2)C3(CC3)[S@](=N)(=O)C)C4=C5C=CNC5=NC=C4 [AZD6738] (first compound max 10 µM, 7x7, partner max 10 µM) | 0.542 | 0.721 | 0.817 | 1 | 0.823 | 0.318 | 0.851 | 1 | 0.651 | 0.787 | 0.66 | 0.727 | 0.569 | 0.402 | 0.875 | 0.614 | 0.752 | 1 | 0.986
NC1(C(=O)N[C@@H](CCO)c2ccc(Cl)cc2)CCN(c2ncnc3[nH]ccc23)CC1 [Capivasertib] + COc1nnc2ccc(N3CCC(c4ccc(OCCN5CCN(C)C(=O)[C@H]5C)cc4)CC3)nn12 [AZD5153] (first compound max 10 µM, 7x7, partner max 1 µM) | 0.559 | 0.466 | 0.622 | 1 | 1 | 0.296 | 0.931 | 1 | 0.466 | 0.834 | 0.873 | 0.738 | 0.454 | 0.683 | 0.878 | 0.758 | 0.565 | 1 | 1
NC1(C(=O)N[C@@H](CCO)c2ccc(Cl)cc2)CCN(c2ncnc3[nH]ccc23)CC1 [Capivasertib] + Cn1cnc2c(F)c(Nc3ccc(Br)cc3Cl)c(C(=O)NOCCO)cc21 [Selumetinib] (first compound max 10 µM, 7x7, partner max 10 µM) | 0.482 | 0.65 | 0.624 | 1 | 0.427 | 0.417 | 0.983 | 0.891 | 0.476 | 0.548 | 0.55 | 0.882 | 0.427 | 0.633 | 0.43 | 0.767 | 0.472 | 1 | 0.805
NC1(C(=O)N[C@@H](CCO)c2ccc(Cl)cc2)CCN(c2ncnc3[nH]ccc23)CC1 [Capivasertib] + CC(=O)c1c(C)c2cnc(Nc3ccc(N4CCNCC4)cn3)nc2n(C2CCCC2)c1=O [Palbociclib] (first compound max 10 µM, 7x7, partner max 10 µM) | 0.445 | 0.355 | 0.356 | 0.985 | 0.734 | 0.25 | 0.552 | 0.757 | 0.27 | 0.501 | 0.537 | 0.701 | 0.368 | 0.463 | 0.483 | 0.588 | 0.472 | 1 | 0.94
CC(=O)c1c(C)c2cnc(Nc3ccc(N4CCNCC4)cn3)nc2n(C2CCCC2)c1=O [Palbociclib] + CC1(C)CCC(CN2CCN(c3ccc(C(=O)NS(=O)(=O)c4ccc(NCC5CCOCC5)c([N+](=O)[O-])c4)c(Oc4cnc5[nH]ccc5c4)c3)CC2)=C(c2ccc(Cl)cc2)C1 [Venetoclax] (first compound max 10 µM, 7x7, partner max 1 µM) | 0.336 | 0.178 | 0.288 | 0.626 | 1 | 0.0792 | 0.521 | 1 | 0.125 | 0.136 | 0.279 | 0.572 | 0.0364 | 0.331 | 0.387 | 0.216 | 0.326 | 1 | 0.989
NC1(C(=O)N[C@@H](CCO)c2ccc(Cl)cc2)CCN(c2ncnc3[nH]ccc23)CC1 [Capivasertib] + CC(C)n1c(=O)n(C)c2cnc3cc(F)c(-c4ccc(OCCCN5CCCCC5)nc4)cc3c21 [AZD1390] (first compound max 10 µM, 7x7, partner max 0.3 µM) | 0.274 | 0.292 | 0.246 | 0.78 | 0.415 | 0.203 | 0.48 | 0.547 | 0.415 | 0.485 | 0.54 | 0.509 | 0.245 | 0.295 | 0.135 | 0.506 | 0.25 | 1 | 0.398
